Measurements published in patent US11985994B2, “Sweetener and flavor compositions, methods of making and methods of use thereof” (EPC Natural Products Co., Ltd., priority 2018, dated 2024).
Where two headings read alike, the source gives them in different places. Residues, ends and D or L forms follow the SMILES beside them.

Experiments:
[1] = Sensory evaluation (smell, color, taste) of Maillard reaction samples, Examples 52, 55-63; design: species or system human
Protocol: For evaluation of the taste profile, the samples were tested by a panel of four people. 1 trained taster tasted independently the samples first. The taster was asked to describe the taste profile and score 0-5 according to the increasing sugar likeness, bitterness, aftertaste and lingering taste profiles. The first taster was allowed to re-taste, and then make notes for the sensory attributes perceived. Afterwards, another 3 tasters tasted and the attributes were noted and discussed openly to find a suitable description. In case that more than 1 taster disagreed with the results, the tasting was repeated. In some sensory test results (above), the taste rating was expressed by “+”, which means the intensity of the factors is shown by three levels. “+” for slight, “++” for moderate and “+++” for very strong.
All samples were assessed at 22° C. after the Maillard reaction was stopped by placing the sealed vials in an ice bath. After 20 minutes in the ice bath the sealed vials were put in a water bath set to 22° C.
The odor/smell was assessed independently by 3 persons; the final description was agreed after discussion. […] The taste was assessed independently by 3 persons either in the original samples or after appropriate dilution to achieve relevant concentrations of sugars and steviol-glycosides (i.e. 5-9% SE); the final description was agreed after discussion.

[2] = as above; design: species or system human; conditions: before reaction, 10 ml KH2PO4 pH 7.8 (Example 57)
[3] = Assay to test DPPH radical-scavenging activity (Example 65); format: physicochemical; conditions: combinations of amino acids and Reb-A, 100 °C; less pronounced than glucose or xylose
Protocol: 1 mg 1,1-Diphenyl-2-picrylhydrazyl radical (DPPH)/ml ethanol, dilution to assay concentration were prepared in ethanol (40 μg/mL); Calibration samples were prepared with Ascorbic acid in a concentration of 0-10 μg/mL, as a negative control sample, water was used.
Samples in aqueous solution were used as such or diluted with water.
A 0.1 ml sample (or calibration standard) was mixed with 3.9 ml solution of DPPH (100 μMolar) and reacted while protected from light at room temperature for 30 min. Absorbance was determined at 517 nm against ethanol.
10 mM of amino acid and/or 10 mM sugar were dissolved in 10 ml 0.1 mM KH2PO4-buffer, pH=7.8.
The samples were kept at 100° C. in sealed glass vials (Pyrex 15 ml with screw caps) for 0 (before reaction), 2.5 or 5.0 hours. Thereafter the samples were transferred to an ice water bath and cooled down to room temperature. These samples were diluted 1:10 and used for the test assay for anti-oxidant potential.

[4] = cited from earlier work
[5] = HPLC/DAD/MS analysis of reaction partners and MRI (Amadori) products; format: physicochemical; conditions: 120 °C; for consumption in the reaction with Phe: KH2PO4 pH 7.8, 2.5 h, glucose present or not
Protocol: Quantitative evaluation was performed using external standardization.

[6] = Sensory evaluation of GSGs and SGs, thaumatin, NHDC and combinations (Example 255); design: species or system human
Protocol: 4.5 ppm Thaumatin (equivalent to 10 ppm EPCalin) was dissolved in water. Increasing amounts of NHDC (1-5 ppm) were added to the solution and the sensory properties were evaluated.
50 ppm (GSGs and SGs) were dissolved in water. Increasing amounts of NHDC (1-5 ppm) were added to the solution and the sensory properties were evaluated.
50 ppm (GSGs and SGs) and 4.5 ppm Thaumatin (equivalent to 10 ppm EPCalin) were dissolved in water. Increasing amounts of NHDC (1-5 ppm) were added to the solution and the sensory properties were evaluated.
Sweetness intensity was rated on 5-point scale

[7] = Table 52.3: 1 ml water + 9 ml Glycerin, 0.67 h, 100 °C
[8] = after reaction, 10 ml KH2PO4 pH 7.8, 2.5 h, 120 °C (Example 58)
[9] = before reaction, 10 ml KH2PO4 pH 7.8 (Example 58)
[10] = negative controls (no carbohydrate source), 10 ml glycerin/water, 100 °C, 40 minutes
[11] = depends on the tested concentration compared with sucrose
[12] = Table 52.2: 1 ml water + 9 ml Glycerin, 0.67 h, 100 °C
[13] = 1 ml water + 9 ml Glycerin, 2.0 h, 120 °C
[14] = after reaction, 10 ml KH2PO4 pH 7.8, 2.5 h, 120 °C (Example 57)
[15] = 1 ml water + 9 ml Glycerin, 1 h, 100 °C

In the case of `NCCCC[C@H](N)C(=O)O` [0.1 mMol Lys, Lysine], the Color [1, 7] is reported as “Brown”, the Smell [1, 7] is reported as “Popcorn” and the Taste [1, 7] is reported as “Sweet”.

With `N[C@@H](Cc1ccccc1)C(=O)O` [16.5 mg Phe, Phenylalanine] the Color [2] was “No color”, the Smell [2] was “neutral” and the Taste [2] was “No taste”. The Color [1, 8] was “Slightly Yellow”, the Smell [1, 8] was “Caramel, burnt” and the Taste ([1]; after reaction, after dilution 1:20 (Example 58)) was “Sweet”. The Color [1, 9] was “No color”, the Smell [1, 9] was “Neutral” and the Taste ([1]; before reaction, after dilution 1:20 (Example 58)) was “No taste”. For the same compound, the Color [1, 10] was “Very Slightly”, the Smell [1, 10] was “Bloomy, caramel” and the Taste [1, 10] was “Slightly sweet”.

For `C=C1C[C@@]23CC[C@H]4[C@@](C)(CCC[C@@]4(C)C(=O)O[C@@H]4O[C@H](CO)[C@@H](O)[C@H](O)[C@H]4O)[C@@H]2CC[C@]1(O[C@@H]1O[C@H](CO)[C@@H](O)[C@H](O[C@@H]2O[C@H](CO)[C@@H](O)[C@H](O)[C@H]2O)[C@H]1O[C@@H]1O[C@H](CO)[C@@H](O)[C@H](O)[C@H]1O)C3` [Reb-A, Rebaudioside A], the anti-oxidant properties [3] was “substantial anti-oxidant properties”.

In the case of `COC(=O)[C@H](Cc1ccccc1)NC(=O)[C@@H](N)CC(=O)O` [Aspartame] (H-Asp-Phe-OMe), the sweetness [4, 11] is listed as 160-200 times sweeter than sucrose.

In the case of `CSCC[C@H](N)C(=O)O` [14.9 mg Met, Methionine], the Color [1, 10] is reported as “Very Slightly”, the Smell [1, 10] is reported as “Sulfuric” and the Taste [1, 10] is reported as “Slightly sweet”.

In the case of `C[C@H](N)C(=O)O` [0.1 mMol Ala, Alanine], the Color [1, 12] is reported as “No Color”.

In the case of `O=C[C@H](O)[C@@H](O)[C@H](O)CO` [10 mmol Xyl, Xylose], the Color ([1]; Glycerin 10 ml, 100 °C, 40 min) is reported as “Slightly Yellow”, the Smell ([1]; Glycerin 10 ml, 100 °C, 40 min) is reported as “Slightly Popcorn” and the Color ([1]; Glycerin 10 ml, 1 h, 120 °C) is reported as “No color”. The Smell ([1]; Glycerin 10 ml, 1 h, 120 °C) was “neutral”.

In the case of `N[C@@H](Cc1ccccc1)C(=O)O` [0.1 mMol Phe, Phenylalanine], the Color [1, 13] is reported as “Slightly Yellow”, the “Intensity of Smell” value [1, 13] is reported as “+” and the Smell [1, 13] is reported as “Caramel, burnt”. The Taste [1, 13] was “sweet”, the Color [1, 12] was “Slightly Yellow” and the Smell [1, 12] was “flowery/bloomy,”. The Taste [1, 12] was “sweet”.

For `OC[C@H]1O[C@H](O[C@]2(CCl)O[C@H](CCl)[C@@H](O)[C@@H]2O)[C@H](O)[C@@H](O)[C@H]1Cl` [sucralose], the sweetness [4, 11] is listed as “about 600 times sweeter than sucrose”.

For `N[C@@H](CS)C(=O)O` [12.1 mg Cys, Cysteine], the Color [1, 10] was “Slightly Yellow”, the Smell [1, 10] was “Unpleasant (sulfur)” and the Taste [1, 10] was “Slightly sweet”.

In the case of `N[C@@H](CO)C(=O)O` [10.5 mg Ser, Serine], the Color [1, 10] is reported as “Slightly Yellow”, the Smell [1, 10] is reported as “Lotus flower” and the Taste [1, 10] is reported as “Slightly sweet”.

With `C[C@H](N)C(=O)O` [8.91 mg Ala, Alanine] the Color [1, 10] was “No color”, the Smell [1, 10] was “Neutral, slightly Agar” and the Taste [1, 10] was “Slightly sweet”.

With `O=C[C@H](O)[C@@H](O)[C@H](O)[C@H](O)C(=O)O` [Glucuronic Acid] the Color [1, 14] was “Deep Yellow”, the Smell [1, 14] was “burnt bread” and the Taste [1, 14] was “Bitter”. For the same compound, the “consumption in the reaction with Phe” value [5] was “completely consumed”.

In the case of `C[C@@H](O)[C@H](N)C(=O)O` [11.91 mg Thr, Threonine], the Color [1, 10] is reported as “Very Slightly”, the Smell [1, 10] is reported as “Vanilla, butter” and the Taste [1, 10] is reported as “Slightly sweet”.

For `O=C[C@H](O)[C@@H](O)[C@H](O)[C@H](O)C(=O)O` [18 mg Glucuronic Acid, Glucuronic Acid], the Color [2] was “No color”, the Smell [2] was “neutral” and the Taste [2] was “No taste”.

In the case of `O=C(O)[C@@H]1CCCN1` [11.5 mg Pro, Proline], the Color [1, 10] is reported as “Slightly Yellow”, the Smell [1, 10] is reported as “Neutral, slightly” and the Taste [1, 10] is reported as “Slightly sweet”.

For `O=C[C@H](O)[C@H]1OC(=O)[C@@H](O)[C@H]1O` [Glucuronolactone], the Color [1, 14] was “Deep Yellow”, the Smell [1, 14] was “Burnt sugar” and the Taste [1, 14] was “Bitter”. For the same compound, the “consumption in the reaction with Phe” value [5] was “completely consumed”.

With `O=C[C@H](O)[C@@H](O)[C@H](O)CO` [167 mMol Xyl, Xylose] the Color [1, 15] was “No color”, the Smell [1, 15] was “neutral/meat” and the Taste [1, 15] was “Sweet”.

For `C=C1C[C@@]23CC[C@H]4[C@@](C)(CCC[C@@]4(C)C(=O)O[C@@H]4O[C@H](CO)[C@@H](O)[C@H](O)[C@H]4O)[C@@H]2CC[C@]1(O[C@@H]1O[C@H](CO)[C@@H](O)[C@H](O[C@@H]2O[C@H](CO)[C@@H](O)[C@H](O)[C@H]2O)[C@H]1O[C@@H]1O[C@H](CO)[C@@H](O)[C@H](O)[C@H]1O)C3` [0.05 mMol Reb-A, Rebaudioside A], the Color [1, 12] was “Slightly Yellow”.

With `O=C[C@H](O)[C@H]1OC(=O)[C@@H](O)[C@H]1O` [0.1 mMol GlucLac, Glucuronolactone] the Color [1, 13] was “Almost black”, the “Intensity of Smell” value [1, 13] was “+++” and the Smell [1, 13] was “Burnt sugar”. For the same compound, the Taste [1, 13] was “Bitter”.

In the case of `N[C@@H](Cc1c[nH]c2ccccc12)C(=O)O` [20.42 mg Try, Tryptophan], the Color [1, 10] is reported as “Slightly Yellow”, the Smell [1, 10] is reported as “Unpleasant (fecal)” and the Taste [1, 10] is reported as “Slightly sweet”.

For `O=C[C@H](O)[C@@H](O)[C@H](O)CO` [Xyl, Xylose], the “% degradation” value ([5]; Phe + Xyl, pH = 7.0, 1.0 h) was 6.3%.

In the case of `O=S(=O)([O-])NC1CCCCC1.[Na+]` [sodium cyclamate], the sweetness [4, 11] is given as “about 30 times sweeter than sucrose”.

In the case of `CC[C@H](C)[C@H](N)C(=O)O` [13.11 mg Ile, Isoleucine], the Color [1, 10] is reported as “No color”, the Smell [1, 10] is reported as “Coffee” and the Taste [1, 10] is reported as “Slightly sweet”.

For `N[C@@H](Cc1ccccc1)C(=O)O` [3.3 mMol Phe, Phenylalanine], the Color ([1]; Glycerin 10 ml, 100 °C, 5 min) was “No color”, the Smell ([1]; Glycerin 10 ml, 100 °C, 5 min) was “Slightly bloomy” and the Color ([1]; Glycerin 10 ml, 100 °C, 10 min) was “No color”. The Smell ([1]; Glycerin 10 ml, 100 °C, 10 min) was “flowery/bloomy”, the Color ([1]; Glycerin 10 ml, 100 °C, 20 min) was “Slightly Yellow” and the Smell ([1]; Glycerin 10 ml, 100 °C, 20 min) was “flowery/bloomy”. For the same compound, the Color ([1]; Glycerin 10 ml, 100 °C, 40 min) was “Yellow-slightly”, the Smell ([1]; Glycerin 10 ml, 100 °C, 40 min) was “flowery/bloomy” and the Color ([1]; Glycerin 10 ml, 1 h, 120 °C) was “Brown”. The Smell ([1]; Glycerin 10 ml, 1 h, 120 °C) was “flowery/bloomy”.

For `COc1ccc(CCC(=O)c2c(O)cc(O[C@@H]3O[C@H](CO)[C@@H](O)[C@H](O)[C@H]3O[C@@H]3O[C@@H](C)[C@H](O)[C@@H](O)[C@H]3O)cc2O)cc1O` [NHDC, Neohesperidin dihydrochalcone], the sweetness ([4]; at threshold concentrations) is listed as 1500-1800 times sweeter than sugar, the sweetness ([4]; weight-for-weight) is listed as “about 340 times sweeter than sugar” and the lingering ([6]; 4, 5 ppm added to 50 ppm GSGs and SGs and 4.5 ppm Thaumatin) is listed as “boosts the lingering”. For the same compound, the lingering ([6]; 4 and 5 ppm added to 4.5 ppm Thaumatin in water) was “long lasting lingering”.

For `N[C@@H](Cc1ccc(O)cc1)C(=O)O` [18.1 mg Tyr, Tyrosine], the Color [1, 10] was “No color”, the Smell [1, 10] was “neutral” and the Taste [1, 10] was “Slightly sweet”.

With `NCCCC[C@H](N)C(=O)O` [14.7 mg Lys, Lysine] the Color [1, 10] was “brown”, the Smell [1, 10] was “Popcorn” and the Taste [1, 10] was “Slightly sweet”.

With `N[C@@H](Cc1ccccc1)C(=O)O` [Phe 60 mMol, Phenylalanine] the Color [1, 15] was “Slightly Yellow”, the Smell [1, 15] was “flowery/bloomy-caramel” and the Taste [1, 15] was “Sweet”.

For `O=C[C@H](O)[C@@H](O)[C@H](O)[C@H](O)C(=O)O` [0.1 mMol Gluc Acid, Glucuronic Acid], the Color [1, 13] was “Almost black”, the “Intensity of Smell” value [1, 13] was “+++” and the Smell [1, 13] was “burnt bread”. For the same compound, the Taste [1, 13] was “Bitter”.

For MoneIlin, the Sweetness by weight ([4]; compared to sucrose) is listed as 800-2,000.
